For one data set, the system named is MCF-7 cells. Kind of data set: Wound healing assay. The settings on record: 0.1, 1, 10 μM, 24 h, vs untreated control. Type of data set: cell-based, human. How it is done: The impact of compound 3g on MCF-7 cell migration was assessed using wound healing and transwell migration assays.
MCF-7 cells were seeded and incubated in a 6-well plate overnight. Scratches were made in confluent monolayers with a 200 μL pipette tip. Then, wounds were washed twice with media to remove debris and uprooted cells. Cells were treated with various concentrations (0, 0.1, 1, and 10 μM) of compound 3g. Images were obtained using phase contrast microscopy at 0 and 24 h. The migration distance of cells in the wound area was quantified using ImageJ.
Figure 4 Effect of compound 3g on the migration of MCF-7 breast cancer cells. (A) 3g inhibited the migration of MCF-7 cells at different concentrations in a dose-dependent manner. Representative images of wound healing were captured by an inverted microscope at 0 h and 24 h treatment. Scale bar = 200 μm. (B) Wound closure percentages in the different groups after treatment with 3g for 24 h. (C) Results of the transwell migration assay. Representative images of the stained migrated cells after incubation with 3g at different concentrations for 48 h. Scale bar = 200 μm. Data are presented as the mean ± SD of three independent experiments. Bar values represent the standard deviation SD. ** p < 0.01, and *** p < 0.001 (one-way ANOVA).

Data set [1] in a line: In vivo tolerability (body weight, H&E histopathology of liver and kidney). Also noted: species or system mouse. On the procedure:
All animal procedures were approved by the Animal Ethics Committee of the Naval Medical University (permit number: EC11-055). Male BALB/c mice (6–8 weeks old, average initial body weight approximately 18–20 g) were purchased from Shanghai SLAC Laboratory Animal Co., Ltd. The inhibitory effect of compound 3g was evaluated using a subcutaneous B16-F10 melanoma xenograft model. Log-phase B16F10 cells were suspended in PBS and subcutaneously injected into mice (200 μL containing 8 × 10^5 cells per mouse) to establish tumors. Mice were randomly divided into control and treatment groups (n = 8). Compound 3g and paclitaxel were dissolved in a vehicle consisting of DMSO:PEG:Tween-80:saline (v/v/v/v, 5:35:10:50) to the desired concentrations. Treatments (paclitaxel, 10 mg/kg; compound 3g, 20 and 50 mg/kg, doses calculated on a body-weight basis) and vehicle were administered once daily via intraperitoneal injection for 14 consecutive days. Body weights were monitored throughout the study to assess acute toxicity. Tumor volumes were measured using calipers and calculated with the formula: a × b^2 × 0.5, where a and b represent the larger and smaller tumor diameters, respectively. On day 14, mice were sacrificed and tumors were excised and weighed. […] Major organs (liver and kidneys) were collected, fixed in 4% paraformaldehyde, processed into paraffin sections, stained with hematoxylin and eosin (H&E), and examined microscopically.
Figure 8 Compound 3g inhibits melanoma tumor growth in vivo. Murine melanoma B16-F10 xenograft tumors were established in mice, which were then administered vehicle, PTX (10 mg/kg per day), compound 3g (20 mg/kg per day), and compound 3g (50 mg/kg per day) for 14 days. The mice were sacrificed, and the tumors were weighed. (A) Images of tumors from mice at 14 days after initiation of treatment. (B) Body weight changes in mice during treatment. (C) Weight of the excised tumors of each group. * p < 0.05, and *** p < 0.001 vs. control group. (D) Tumor volume changes in mice during treatment. […]

Data set [2] relates to microtubule network in MCF-7 cells. Put plainly: Immunofluorescence staining of microtubules. Type of data set: cell-based, human. The following applies: 0.1, 1 and 10 μM, 24 h. On the procedure:
Given the potent in vitro antiproliferative activity of compound 3g, its effects on microtubule organization were further investigated using immunofluorescence staining in MCF-7 cells. […] The network appeared disassembled and fragmented in a dose-dependent manner, indicating significant cytoskeletal destabilization.
MCF-7 cells were seeded on glass coverslips in 24-well plates and then treated with vehicle control 0.1% DMSO, 3g (0.1, 1, 10 μM) for 24 h. The cells were fixed with 4% paraformaldehyde and then permeabilized with PBS containing 0.2% Triton X-100. After blocking for 30 min by adding 100 μL of goat serum albumin at room temperature, cells were incubated with a β-tubulin polyclonal antibody (Proteintech, Wuhan Sanying Biotechnology, Wuhan, China, Cat# 10094-1-AP, 1:500 dilution) at 37 °C for 12 h. Then, the cells were washed three times with PBS and incubated with a secondary antibody (Beyotime, Shanghai, China, Cat# A0516, 1:500 dilution) for 1 h at room temperature. Nuclei were labeled with 4,6-diamidino-2-phenylindole (DAPI). Cells were finally visualized using a fluorescence microscope (Nikon TI2-E+A1R, Nikon Corporation, Tokyo, Japan).
Figure 5 Effects of compound 3g on microtubules. MCF-7 cells were treated with vehicle control 0.1% DMSO, compound 3g (0.1μM, 1μM, and 10 μM for 24 h). […]

The mark [3] stands for this setting: 20 and 50 mg/kg i.p. daily, 14 days.

Molecules are shown by their SMILES. Entries after “also recorded” stand apart in the source; their conditions may differ.

As for `COc1cc(-n2ccc3ccc(-c4ccc(C)c(C#N)c4)cc32)cc(OC)c1OC` [3g, 2-methyl-5-(1-(3,4,5-trimethoxyphenyl)-1H-indol-6-yl)benzonitrile], the wound closure result with MCF-7 cells is reported as “markedly inhibited”. Besides, in data set [1] (20 mg/kg and 50 mg/kg), the systemic toxicity result is given as “without evident systemic toxicity”. Also, in data set [1] (setting [3]), the body weight change result is given as “did not induce significant body weight loss”; the “histopathology of liver and kidneys (H&E)” value is given as “no overt toxicity; also recorded: did not reveal obvious morphological abnormalities”. In addition, the microtubule architecture entry in data set [2] is on record as “progressive disruption”.

The values are drawn from article PMC12693167, “Design, Synthesis and Anticancer Activity of 6-Substituted-1-(3,4,5-trimethoxyphenyl)-1H-indole Against Tubulin Polymerisation” (Molecules, 2025).
